Source: BindingDB's records for PubMed 10565848 (Washington State University, 1999)
Where “and” joins values, the source holds several entries; their conditions need not be identical. Equal values may be shown once. Where a SMILES comes first, the peptide text is derived from it. [ ]: non-standard residue; d: D form. GABA = NCCCC(=O)O

target: Angiotensin-converting enzyme 2 (Bos taurus, UniProt Q58DD0)
Sequence (Q58DD0 whole entry): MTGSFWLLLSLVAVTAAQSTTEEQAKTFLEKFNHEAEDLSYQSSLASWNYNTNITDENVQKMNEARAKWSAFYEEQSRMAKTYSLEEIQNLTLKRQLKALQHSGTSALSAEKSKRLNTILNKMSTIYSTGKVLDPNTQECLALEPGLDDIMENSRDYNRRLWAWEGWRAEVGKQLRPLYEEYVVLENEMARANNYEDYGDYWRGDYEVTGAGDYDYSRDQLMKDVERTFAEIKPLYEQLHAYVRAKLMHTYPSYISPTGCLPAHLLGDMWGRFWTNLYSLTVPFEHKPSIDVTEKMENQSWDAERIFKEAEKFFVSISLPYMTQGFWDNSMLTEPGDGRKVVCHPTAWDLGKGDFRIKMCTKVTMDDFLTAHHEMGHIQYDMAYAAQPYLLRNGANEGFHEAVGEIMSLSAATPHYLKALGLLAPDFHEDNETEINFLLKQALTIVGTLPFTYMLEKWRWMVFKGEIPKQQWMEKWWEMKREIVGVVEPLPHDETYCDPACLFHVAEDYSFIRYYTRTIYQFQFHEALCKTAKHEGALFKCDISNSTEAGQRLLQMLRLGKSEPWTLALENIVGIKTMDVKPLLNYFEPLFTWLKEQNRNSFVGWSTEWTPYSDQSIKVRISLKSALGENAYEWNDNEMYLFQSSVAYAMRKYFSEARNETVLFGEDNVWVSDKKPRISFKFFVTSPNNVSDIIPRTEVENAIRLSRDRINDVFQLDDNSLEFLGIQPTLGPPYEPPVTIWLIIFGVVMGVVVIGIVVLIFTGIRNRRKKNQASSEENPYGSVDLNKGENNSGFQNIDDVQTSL

**Q.** How did the Ki turn out when Cc1cc(Cn2cnc3c2C[C@@H](C(=O)O)N(C(=O)C(c2ccccc2)c2ccccc2)C3)ccc1N was run?
**A.** > 10000 nM

**Q.** How did the Ki turn out when CC[C@H](C)[C@H](NC(=O)[C@H](Cc1ccc(O)cc1)NC(=O)[C@@H](N)C(C)C)C(=O)N[C@@H](Cc1cnc[nH]1)C(=O)N1CCC[C@H]1C(=O)N[C@@H](Cc1ccccc1)C(=O)O was run?
**A.** 5.54 nM and 3.58 nM

**Q.** For CCC(C)[C@H](NC(=O)[C@@H]1CCCN1C(=O)[C@H](Cc1cnc[nH]1)NC(=O)[C@@H](NC(=O)[C@H](Cc1ccc(O)cc1)NC(=O)[C@@H](NC(=O)[C@H](CCCN=C(N)N)NC(=O)CNC)C(C)C)[C@@H](C)CC)C(=O)O (stereo partly specified) [Ang II Ile8, Sar1], which Ki is on record?
**A.** 1000 nM

**Q.** How did the Ki turn out when CC[C@H](C)[C@H](NC(=O)[C@H](Cc1ccc(O)cc1)NC(=O)[C@@H](NC(=O)[C@H](CCCN=C(N)N)NC(=O)CNC)C(C)C)C(=O)N[C@@H](Cc1cnc[nH]1)C(=O)N1CCC[C@H]1C(=O)N[C@H](C(=O)O)C(C)O (stereo partly specified) [Ang II Thr8, Sar1] was run?
**A.** 1000 nM

**Q.** With CC[C@H](C)[C@H](NC(=O)[C@H](Cc1ccc(O)cc1)NC(=O)[C@H](N)C(C)C)C(=O)N[C@@H](Cc1cnc[nH]1)C(=O)N1CCC[C@H]1C(=O)N[C@@H](Cc1ccccc1)C(=O)O [Ang IV D-Val1] as the molecule, how does the Ki read?
**A.** 1000 nM

**Q.** Which Ki does the source give for CC[C@H](C)[C@H](NC(=O)[C@H](Cc1ccc(O)cc1)NC(=O)CCCN)C(=O)N[C@@H](Cc1cnc[nH]1)C(=O)N1CCC[C@H]1C(=O)N[C@@H](Cc1ccccc1)C(=O)O [Ang IV Nor1] (H-[GABA]YIHPF-OH) here?
**A.** 8.49 nM and 3.25 nM

**Q.** How did the Ki turn out when CC[C@H](C)[C@H](NC(=O)[C@H](Cc1ccc(O)cc1)NC(=O)[C@@H](NC(=O)[C@H](CCCNC(=N)N)NC(=O)[C@@H](N)CC(=O)O)C(C)C)C(=O)N[C@@H](Cc1cnc[nH]1)C(=O)N[C@H](C)C(=O)O [Ang(1-7) D-Ala7] (H-DRVYIH[dA]-OH) was run?
**A.** 1000 nM

**Q.** CC[C@H](C)[C@H](NC(=O)[C@H](Cc1ccc(O)cc1)NC(=O)[C@@H](NC(=O)[C@H](CCCNC(=N)N)NC(=O)[C@@H](N)CC(=O)O)C(C)C)C(=O)N[C@@H](Cc1c[nH]cn1)C(=O)N1CCC[C@H]1C(=O)O [Ang(1-7)] was tested. Which Ki did it give?
**A.** 1000 nM

**Q.** How did the Ki turn out when CC[C@H](C)[C@H](NC(=O)[C@H](Cc1ccc(O)cc1)NC(=O)[C@@H](NC(=O)[C@@H](N)CCCN=C(N)N)C(C)C)C(=O)N[C@@H](Cc1cnc[nH]1)C(=O)N1CCC[C@H]1C(=O)O [Ang(2-7)] was run?
**A.** 33.5 nM

**Q.** CC(C)[C@H](N)C(=O)N[C@@H](Cc1ccc(O)cc1)C(=O)O [Ang(3-4)] (H-Val-Tyr-OH) was tested. Which Ki did it give?
**A.** 1000 nM

**Q.** Which Ki does the source give for CC[C@H](C)[C@H](NC(=O)[C@H](Cc1ccc(O)cc1)NC(=O)[C@@H](N)C(C)C)C(=O)O [Ang(3-5)] (H-Val-Tyr-Ile-OH) here?
**A.** 9.91 nM

**Q.** How did the Ki turn out when CC[C@H](C)[C@H](NC(=O)[C@H](Cc1ccc(O)cc1)NC(=O)[C@@H](N)C(C)C)C(=O)N[C@@H](Cc1cnc[nH]1)C(=O)O [Ang(3-6)] (H-VYIH-OH) was run?
**A.** 14.4 nM

**Q.** For CC[C@H](C)[C@H](NC(=O)[C@H](Cc1ccc(O)cc1)NC(=O)[C@@H](N)C(C)C)C(=O)N[C@@H](Cc1cnc[nH]1)C(=O)N1CCC[C@H]1C(=O)O [Ang(3-7)] (H-VYIHP-OH), which Ki is on record?
**A.** 10.5 nM

**Q.** For CC[C@H](C)[C@H](NC(=O)[C@H](Cc1ccc(O)cc1)NC(=O)[C@@H](N)C(C)C)C(=O)N[C@@H](Cc1c[nH]cn1)C(=O)N1CCC[C@H]1C(=O)N[C@@H](Cc1ccccc1)C(=O)N[C@@H](Cc1c[nH]cn1)C(=O)O [Ang(3-9)] (H-VYIHPFH-OH), which Ki is on record?
**A.** 7.17 nM

**Q.** CC[C@H](C)[C@H](NC(=O)[C@H](Cc1ccc(O)cc1)NC(=O)[C@@H](N)C(C)C)C(=O)N[C@@H](Cc1c[nH]cn1)C(=O)N1CCC[C@H]1C(=O)N[C@@H](Cc1ccccc1)C(=O)N[C@@H](Cc1c[nH]cn1)C(=O)N[C@@H](CC(C)C)C(=O)O [Ang(3-10)] (H-VYIHPFHL-OH) was tested. Which Ki did it give?
**A.** 18.8 nM

**Q.** With CC[C@H](C)[C@H](NC(=O)[C@H](Cc1ccc(O)cc1)NC(=O)[C@@H](N)C(C)C)C(=O)N[C@@H](Cc1cnc[nH]1)C(=O)N1CCC[C@H]1C(=O)N[C@@H](Cc1ccccc1)C(=O)N[C@@H](Cc1cnc[nH]1)C(=O)N[C@@H](CC(C)C)C(=O)N[C@H](C(=O)O)C(C)C [Ang(3-11)] (H-VYIHPFHLV-OH) as the molecule, how does the Ki read?
**A.** 117 nM

**Q.** CC[C@H](C)[C@H](NC(=O)[C@@H](N)Cc1ccc(O)cc1)C(=O)N[C@@H](Cc1cnc[nH]1)C(=O)N1CCC[C@H]1C(=O)N[C@@H](Cc1ccccc1)C(=O)O [Ang(4-8)] (H-YIHPF-OH) was tested. Which Ki did it give?
**A.** 1000 nM

**Q.** Which Ki does the source give for CC[C@H](C)[C@H](NC(=O)[C@H](Cc1ccc(O)cc1)NC(=O)[C@@H](NC(=O)[C@@H](N)CCCN=C(N)N)C(C)C)C(=O)N[C@@H](Cc1c[nH]cn1)C(=O)N1CCC[C@H]1C(=O)N[C@@H](Cc1ccccc1)C(=O)O [CAS_12687-51-3] here?
**A.** 63.2 nM and 36.8 nM

**Q.** How did the Ki turn out when CCCCc1nc(Cl)c(CO)n1Cc1ccc(-c2ccccc2-c2nn[nH]n2)cc1 [NSC_3961] was run?
**A.** > 10000 nM

**Q.** With CC[C@H](C)[C@H](NC(=O)[C@H](Cc1ccc(O)cc1)NC(=O)[C@@H](NC(=O)[C@H](CCCNC(=N)N)NC(=O)[C@@H](N)CC(=O)O)C(C)C)C(=O)N[C@@H](Cc1cnc[nH]1)C(=O)N1CCC[C@H]1C(=O)N[C@@H](Cc1ccccc1)C(=O)O [NSC_439662] as the molecule, how does the Ki read?
**A.** 411 nM and 581 nM

**Q.** How did the Ki turn out when CCCC[C@H](N)C(=O)N[C@H](Cc1ccccc1)C(=O)NCCCCCC(N)=O [NleYI-6-hexamide] was run?
**A.** 13.7 nM
